According to PubChem BioAssay AID248 (DTP/NCI, 2004):
Toxic doses and inconclusive results are not listed. No stated cut-off is given here; in the data, active means T/C of 150% or more; inactive means T/C below 125%.

System: L1210 leukemia ip in BDF1 mice, survival T/C
Test: NCI In Vivo Anticancer Drug Screen. Data for tumor model L1210 Leukemia (intraperitoneal) in B6D2F1 (BDF1) mice
Settings: endpoint: mean survival time, higher = longer survival
Summary of the method: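 Survival endpoint. Drug-treated group vs vehicle group, expressed as T divided by C. Tumor passaged by transplantation.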

[1] = dose: 100.0 mg/kg/injection, schedule: Q01DX001 (ip), vehicle: carboxymethylcellulose (CMC)
[2] = dose: 200.0 mg/kg/injection, schedule: Q01DX001 (ip), vehicle: carboxymethylcellulose (CMC)
[3] = dose: 400.0 mg/kg/injection, schedule: Q01DX001 (ip), vehicle: carboxymethylcellulose (CMC)
[4] = dose: 100.0 mg/kg/injection, schedule: Q01DX001 (ip), vehicle: Klucel (hydroxypropylcellulose) (HPC)
[5] = dose: 200.0 mg/kg/injection, schedule: Q01DX001 (ip), vehicle: Klucel (hydroxypropylcellulose) (HPC)
[6] = dose: 100.0 mg/kg/injection, schedule: Q04DX003 (ip), vehicle: Klucel (hydroxypropylcellulose) (HPC)
[7] = dose: 200.0 mg/kg/injection, schedule: Q04DX003 (ip), vehicle: Klucel (hydroxypropylcellulose) (HPC)
[8] = dose: 400.0 mg/kg/injection, schedule: Q01DX001 (ip), vehicle: Klucel (hydroxypropylcellulose) (HPC)
[9] = dose: 400.0 mg/kg/injection, schedule: Q04DX003 (ip), vehicle: Klucel (hydroxypropylcellulose) (HPC)
[10] = dose: 100.0 mg/kg/injection, schedule: Q01DX009 (ip), vehicle: saline with Tween-80
[11] = dose: 100.0 mg/kg/injection, schedule: Q04DX003 (ip), vehicle: saline with Tween-80
[12] = dose: 200.0 mg/kg/injection, schedule: Q01DX009 (ip), vehicle: saline with Tween-80
[13] = dose: 200.0 mg/kg/injection, schedule: Q04DX003 (ip), vehicle: saline with Tween-80
[14] = dose: 400.0 mg/kg/injection, schedule: Q04DX003 (ip), vehicle: saline with Tween-80
[15] = dose: 50.0 mg/kg/injection, schedule: Q01DX009 (ip), vehicle: saline with Tween-80
[16] = dose: 100.0 mg/kg/injection, schedule: Q01DX009 (ip), vehicle: Klucel (hydroxypropylcellulose) (HPC)
[17] = dose: 200.0 mg/kg/injection, schedule: Q01DX009 (ip), vehicle: Klucel (hydroxypropylcellulose) (HPC)

Measured: T/C

O=C(OCC(O)C(O)C(O)C(COC(=O)c1ccccc1)OC(=O)c1ccccc1)c1ccccc1 (centres undefined)
inactive: dose: 87.5 mg/kg/injection, schedule: Q01DX009 (ip), vehicle: carboxymethylcellulose (CMC) 87 % of control | [1] 98 % of control | dose: 175.0 mg/kg/injection, schedule: Q01DX009 (ip), vehicle: carboxymethylcellulose (CMC) 90 % of control | [2] 96 % of control | dose: 350.0 mg/kg/injection, schedule: Q01DX009 (ip), vehicle: carboxymethylcellulose (CMC) 87 % of control | [3] 93 % of control

COc1c(NC(=O)CC(C)=O)ccc2c(C)cc(=O)n(C)c12
inactive: dose: 50.0 mg/kg/injection, schedule: Q01DX001 (ip), vehicle: Klucel (hydroxypropylcellulose) (HPC) 103 % of control | [4] 99 % of control | [5] 100 % of control

Cc1cc(=O)[nH]c2nc3ccccc3n12
inactive: [4] 108 % of control | [6] 96 % of control | [5] 95 % of control | [7] 96 % of control | [8] 111 % of control | [9] 104 % of control

O=C1CSCc2nc3ccccc3n21
inactive: [10] 97 % of control | [11] 106 % of control | [12] 100 % of control | [13] 103 % of control | dose: 400.0 mg/kg/injection, schedule: Q01DX009 (ip), vehicle: saline with Tween-80 100 % of control | [14] 97 % of control

CCCNC(=O)NO
inactive: [1] 103 % of control | dose: 150.0 mg/kg/injection, schedule: Q01DX009 (ip), vehicle: other 105 % of control | [2] 100 % of control | [3] 105 % of control

NC(=O)c1ccccc1C(Cl)(Cl)Cl
inactive: [15] 88 % of control | [10] 89 % of control | [11] 104 % of control | [13] 96 % of control

NCCCC(=O)NCCCCCCCCCCNC(=O)CCCN
inactive: dose: 3.0 mg/kg/injection, schedule: Q01DX012 (ip), vehicle: saline 105 % of control | dose: 10.0 mg/kg/injection, schedule: Q01DX012 (ip), vehicle: saline 108 % of control | dose: 30.0 mg/kg/injection, schedule: Q01DX012 (ip), vehicle: saline 103 % of control

Cc1ccc(NC(=S)N(CCC#N)C2CCCCC2)cc1C
inactive: dose: 100.0 mg/kg/injection, schedule: Q04DX002 (ip), vehicle: Klucel (hydroxypropylcellulose) (HPC) 97 % of control | dose: 200.0 mg/kg/injection, schedule: Q04DX002 (ip), vehicle: Klucel (hydroxypropylcellulose) (HPC) 90 % of control | dose: 400.0 mg/kg/injection, schedule: Q04DX002 (ip), vehicle: Klucel (hydroxypropylcellulose) (HPC) 90 % of control

COC(=O)c1cccc2ccc3ccccc3c12
inactive: dose: 75.0 mg/kg/injection, schedule: Q04DX003 (ip), vehicle: saline 97 % of control | dose: 150.0 mg/kg/injection, schedule: Q04DX003 (ip), vehicle: saline 103 % of control | dose: 300.0 mg/kg/injection, schedule: Q04DX003 (ip), vehicle: saline 94 % of control

O=C(C#Cc1ccccc1)/C=C/c1ccccc1
inactive: [6] 88 % of control | [7] 98 % of control

O=C(O)c1ccc(I)cc1.[Ni]
inactive: dose: 25.0 mg/kg/injection, schedule: Q04DX002 (ip), vehicle: Klucel (hydroxypropylcellulose) (HPC) 100 % of control | dose: 50.0 mg/kg/injection, schedule: Q04DX002 (ip), vehicle: Klucel (hydroxypropylcellulose) (HPC) 100 % of control

CC12CCC(CC1)C(O)C2 (centres undefined)
inactive: dose: 100.0 mg/kg/injection, schedule: Q01DX001 (ip), vehicle: saline with Tween-80 104 % of control | [11] 97 % of control | dose: 200.0 mg/kg/injection, schedule: Q01DX001 (ip), vehicle: saline with Tween-80 101 % of control | [13] 101 % of control | dose: 400.0 mg/kg/injection, schedule: Q01DX001 (ip), vehicle: saline with Tween-80 98 % of control | [14] 87 % of control

O=C(Nc1ccc(Cl)cc1)c1ccccc1
inactive: dose: 50.0 mg/kg/injection, schedule: Q01DX009 (ip), vehicle: Klucel (hydroxypropylcellulose) (HPC) 105 % of control | [16] 100 % of control | [6] 100 % of control | [17] 93 % of control | [7] 101 % of control | [9] 91 % of control

O=C(Nc1cc(C(F)(F)F)ccc1Cl)c1ccc(Cl)cc1Cl
inactive: dose: 100.0 mg/kg/injection, schedule: Q01DX009 (sc), vehicle: olive oil, sesame oil, peanut oil 104 % of control | dose: 100.0 mg/kg/injection, schedule: Q04DX003 (sc), vehicle: olive oil, sesame oil, peanut oil 106 % of control | dose: 200.0 mg/kg/injection, schedule: Q01DX009 (sc), vehicle: olive oil, sesame oil, peanut oil 113 % of control | dose: 200.0 mg/kg/injection, schedule: Q04DX003 (sc), vehicle: olive oil, sesame oil, peanut oil 101 % of control | dose: 400.0 mg/kg/injection, schedule: Q01DX009 (sc), vehicle: olive oil, sesame oil, peanut oil 107 % of control | dose: 400.0 mg/kg/injection, schedule: Q04DX003 (sc), vehicle: olive oil, sesame oil, peanut oil 101 % of control

O=S(=O)(c1ccccc1)n1c(C(O)c2cccnc2)cc2ccccc21 (centres undefined)
inactive: dose: 100.0 mg/kg/injection, schedule: Q04DX002 (ip), vehicle: saline with Tween-80 93 % of control | dose: 200.0 mg/kg/injection, schedule: Q04DX002 (ip), vehicle: saline with Tween-80 100 % of control | dose: 400.0 mg/kg/injection, schedule: Q04DX002 (ip), vehicle: saline with Tween-80 90 % of control

C=C(C)C1CC=C(C=O)CC1 (centres undefined)
inactive: [4] 93 % of control | [16] 94 % of control | [6] 101 % of control | [5] 92 % of control | [17] 109 % of control | [7] 98 % of control | [8] 92 % of control | [9] 101 % of control

O=S1(=O)N=C(c2ccccc2)CC(c2ccccc2)N1 (centres undefined)
inactive: dose: 25.0 mg/kg/injection, schedule: Q01DX009 (ip), vehicle: saline with Tween-80 87 % of control | [15] 96 % of control | dose: 50.0 mg/kg/injection, schedule: Q04DX003 (ip), vehicle: saline with Tween-80 98 % of control | [10] 94 % of control | [11] 93 % of control | [12] 93 % of control | [13] 86 % of control

C=CCNC(=S)NCC=C
inactive: [16] 102 % of control | [6] 102 % of control | [17] 100 % of control | [7] 104 % of control | dose: 400.0 mg/kg/injection, schedule: Q01DX009 (ip), vehicle: Klucel (hydroxypropylcellulose) (HPC) 100 % of control | [9] 102 % of control

OCCCCc1nccc2c1[nH]c1ccccc12
inactive: dose: 25.0 mg/kg/injection, schedule: Q01DX009 (ip), vehicle: saline 93 % of control | dose: 50.0 mg/kg/injection, schedule: Q01DX009 (ip), vehicle: saline 88 % of control | [1] 86 % of control | [2] 93 % of control | [3] 98 % of control
